{
  "source": "patent US20100105727A1",
  "about": "“NOVEL BENZAMIDE DERIVATIVES AND PROCESS FOR THE PREPARTION THEREOF” (DONG-A-PHARM. CO., LTD., priority 2007, published 2010)",
  "key": {"human 5-HT4 receptor": {"target": "T1, human 5-HT4 receptor (Homo sapiens, UniProt Q13639)", "T1 construct": "expressed in transfected cells; host or cells: COS-7", "T1 sequence (Q13639 whole entry)": "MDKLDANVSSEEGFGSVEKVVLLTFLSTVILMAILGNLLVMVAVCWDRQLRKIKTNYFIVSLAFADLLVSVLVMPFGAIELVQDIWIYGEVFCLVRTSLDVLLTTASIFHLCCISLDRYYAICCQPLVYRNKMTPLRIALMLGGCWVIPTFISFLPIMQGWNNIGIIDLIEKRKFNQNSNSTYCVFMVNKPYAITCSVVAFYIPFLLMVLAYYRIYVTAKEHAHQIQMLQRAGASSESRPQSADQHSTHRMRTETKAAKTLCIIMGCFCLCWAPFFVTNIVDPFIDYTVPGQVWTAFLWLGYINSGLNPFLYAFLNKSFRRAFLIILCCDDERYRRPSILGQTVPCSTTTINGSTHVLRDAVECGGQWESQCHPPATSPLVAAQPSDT", "assay": "Binding affinity of compounds for 5-HT4 receptor (radioligand displacement, membrane lysates of COS-7 cells)", "conditions": "inhibition of specific binding of 0.595 nM [H3]-AGR113808; COS-7 cell membrane lysates expressing human 5-HT4 receptor", "description": "For this purpose, COS-7 cells expressing the human 5-HT4 receptor were constructed and lysed to obtain cell membrane lysates which were then used in binding assay experiments. For binding assay, the membrane lysates were mixed and incubated with different concentrations of test materials and [H3]-AGR113808. […] After incubation was completed, the reaction products were collected in a GF/B glass fiber filter using a Packard cell harvester, and the bound radioactivity was then determined using a liquid cell scintillation counter (Packard TopCount NXT™, Perkin Elmer). Specific binding of the radioligand to the 5-HT4 receptor was calculated by subtracting the non-specific binding of the radioligand from the total radioligand binding. IC50 was calculated from % inhibition of specific binding of the radioligand to the 5-HT4 receptor, with respect to varying concentrations of the test materials."}, "male ICR mice": {"test_system": "male ICR mice", "conditions": "male, ICR, mouse, in vivo, po, 2 weeks", "description": "In order to examine acute toxicity of compounds according to the present invention, the following experiment was carried out.\nOver the entire experimental period of 2 weeks, the minimum lethal dose (MLD, mg/kg) of the compound was investigated by the observation of the mortality, body weight and clinical symptoms of animals."}},
  "data": [
    {"compound": "COc1cc(N)c(Cl)cc1C(=O)N[C@H]1CCN(CCC(=O)Nc2cc(C)cc(C)n2)C[C@H]1OC", "note": "(relative stereo) [Compound 59, cis-4-amino-5-chloro-N-[1-(3-oxo-3-(4,6-dimethylpyridin-2-ylamino)propyl)-3-methoxypiperidin-4-yl]-2-methoxybenzamide]", "values": [
      {"measurement": "IC50", "setting": "human 5-HT4 receptor", "value": 0.14, "unit": "µM"},
      {"measurement": "Minimum lethal dose (MLD, mg/kg)", "setting": "male ICR mice", "value": ">1000", "unit": "mg/kg"}
    ]},
    {"compound": "CCC(=O)N1CCC(CN2CC[C@H](NC(=O)c3cc(Cl)c(N)cc3OC)[C@H](OC)C2)CC1", "note": "(relative stereo) [Compound 17, cis-4-amino-5-chloro-N-[1-((1-propionylpiperidin-4-yl)methyl)-3-methoxypiperidin-4-yl]-2-methoxybenzamide]", "values": [
      {"measurement": "Minimum lethal dose (MLD, mg/kg)", "setting": "male ICR mice", "value": ">1000", "unit": "mg/kg"}
    ]},
    {"compound": "COc1cc(N)c(Cl)cc1C(=O)N[C@H]1CCN(CCc2noc(C)n2)C[C@H]1OC", "note": "(relative stereo) [Compound 54, cis-4-amino-5-chloro-N-[1-(2-(5-methyl-1,2,4-oxadiazol-3-yl)ethyl)-3-methoxypiperidin-4-yl]-2-methoxybenzamide]", "values": [
      {"measurement": "Minimum lethal dose (MLD, mg/kg)", "setting": "male ICR mice", "value": ">1000", "unit": "mg/kg"}
    ]},
    {"compound": "COc1cc(N)c(Cl)cc1C(=O)NC1CCN(CCCOc2ccc(F)cc2)CC1OC", "note": "(stereo not shown) [Cisapride, cisapride, reference compound]", "values": [
      {"measurement": "Minimum lethal dose (MLD, mg/kg)", "setting": "male ICR mice", "value": ">1000", "unit": "mg/kg"}
    ]},
    {"compound": "COc1cc(N)c(Cl)cc1C(=O)N[C@H]1CCN(CCCCCC(=O)Nc2cccc3ncccc23)C[C@H]1OC", "note": "(relative stereo) [Compound 58, cis-4-amino-5-chloro-N-[1-(6-oxo-6-(quinolin-5-ylamino)hexyl)-3-methoxypiperidin-4-yl]-2-methoxybenzamide]", "values": [
      {"measurement": "IC50", "setting": "human 5-HT4 receptor", "value": 0.077, "unit": "µM"}
    ]},
    {"compound": "CCCCOC(=O)N1CCC(CN2CC[C@H](NC(=O)c3cc(Cl)c(N)cc3OC)[C@H](OC)C2)CC1", "note": "(relative stereo) [Compound 7, butyl 4-[(cis-4-(4-amino-5-chloro-2-methoxybenzamido)-3-methoxypiperidin-1-yl)methyl]piperidine-1-carboxylate]", "values": [
      {"measurement": "IC50", "setting": "human 5-HT4 receptor", "value": 0.053, "unit": "µM"}
    ]},
    {"compound": "COc1cc(N)c(Cl)cc1C(=O)N[C@H]1CCN(CC2CCN(C(=O)CCC(C)C)CC2)C[C@H]1OC", "note": "(relative stereo) [Compound 27, cis-4-amino-5-chloro-N-[1-((1-(4-methylpentanoyl)piperidin-4-yl)methyl)-3-methoxypiperidin-4-yl]-2-methoxybenzamide]", "values": [
      {"measurement": "IC50", "setting": "human 5-HT4 receptor", "value": 0.089, "unit": "µM"}
    ]},
    {"compound": "COc1cc(N)c(Cl)cc1C(=O)N[C@H]1CCN(CC2CCN(C(=S)C(C)(C)C)CC2)C[C@H]1OC", "note": "(relative stereo) [Compound 38, cis-4-amino-5-chloro-N-[1-((1-(2,2-dimethylpropanethioyl)piperidin-4-yl)methyl)-3-methoxypiperidin-4-yl]-2-methoxybenzamide]", "values": [
      {"measurement": "IC50", "setting": "human 5-HT4 receptor", "value": 0.217, "unit": "µM"}
    ]},
    {"compound": "COc1cc(N)c(Cl)cc1C(=O)N[C@H]1CCN(CC2CCN(C(C)=S)CC2)C[C@H]1OC", "note": "(relative stereo) [Compound 31, cis-4-amino-5-chloro-N-[1-((1-ethanethioylpiperidin-4-yl)methyl)-3-methoxypiperidin-4-yl]-2-methoxybenzamide]", "values": [
      {"measurement": "IC50", "setting": "human 5-HT4 receptor", "value": 0.214, "unit": "µM"}
    ]},
    {"compound": "COc1cc(N)c(Cl)cc1C(=O)N[C@H]1CCN(CC2CCN(C(=S)C(C)C)CC2)C[C@H]1OC", "note": "(relative stereo) [Compound 30, cis-4-amino-5-chloro-N-[1-((1-(2-methylpropanethioyl)piperidin-4-yl)methyl)-3-methoxypiperidin-4-yl]-2-methoxybenzamide]", "values": [
      {"measurement": "IC50", "setting": "human 5-HT4 receptor", "value": 0.108, "unit": "µM"}
    ]},
    {"compound": "COC(=O)N1CCC(CN2CC[C@H](NC(=O)c3cc(Cl)c(N)cc3OC)[C@H](OC)C2)CC1", "note": "(relative stereo) [Compound 5, methyl 4-[(cis-4-(4-amino-5-chloro-2-methoxybenzamido)-3-methoxypiperidin-1-yl)methyl]piperidine-1-carboxylate]", "values": [
      {"measurement": "IC50", "setting": "human 5-HT4 receptor", "value": 0.13, "unit": "µM"}
    ]},
    {"compound": "CCCC(=S)N1CCC(CN2CC[C@H](NC(=O)c3cc(Cl)c(N)cc3OC)[C@H](OC)C2)CC1", "note": "(relative stereo) [Compound 35, cis-4-amino-5-chloro-N-[1-((1-butanethioylpiperidin-4-yl)methyl)-3-methoxypiperidin-4-yl]-2-methoxybenzamide]", "values": [
      {"measurement": "IC50", "setting": "human 5-HT4 receptor", "value": 0.148, "unit": "µM"}
    ]}
  ]
}
